Tested on: Salmonella typhimurium
Assay: Comparative mutagenic activity toward Salmonella Typhimurium strain TA-100 at concentration of 10 nmol/plate
Type: functional, Salmonella enterica subsp. enterica serovar Typhimurium

## CC(=O)N(O)c1ccc(/C=C/c2ccc(Cl)cc2)cc1
  Revertants/plate: 356

## CC(=O)N(O)c1ccc(/C=C/c2ccccc2)cc1
  Revertants/plate: 1218

## CC(=O)N(O)c1ccc(/C=C/c2ccc(Br)cc2)cc1
  Revertants/plate: 374

## CC(=O)Nc1ccc(/C=C/c2ccccc2)cc1
  Revertants/plate: 385

## CC(=O)Nc1ccc(/C=C/c2ccc(F)cc2)cc1
  Revertants/plate: 632

## CC(=O)Nc1ccc(/C=C/c2ccc(Cl)cc2)cc1
  Revertants/plate: 382

## CC(=O)Nc1ccc(/C=C/c2ccc(Br)cc2)cc1
  Revertants/plate: 211

## CC(=O)N(O)c1ccc(/C=C/c2ccc(F)cc2)cc1
  Revertants/plate: 825

Source: ChEMBL document CHEMBL1122195, “Effect of 4'-halogen substitution on the mutagenicity of trans-4-acetamidostilbene and trans-4-(N-hydroxyacetamido)stilbene in the Salmonella typhimurium test system” (1982)
